Measured values as given in paper PMC11148078, “Potent activity of polymyxin B is associated with long-lived super-stoichiometric accumulation mediated by weak-affinity binding to lipid A” (Nature Communications, 2024).
Bridge positions count the residues as written; N and C are the ends. Square brackets hold non-standard residues; d marks the D form. Peptide text beside a SMILES is read from it. * marks the point of attachment. X1 = CC[C@H](C)CCCCC(=O)*; Dab = NCC[C@H](N)C(=O)O

Test system: LPS (rough-LPS extracted from E. coli F583, Rd mutant)
Assay: Mechanistic SPR study, purified LPS
Type: binding
Conditions: for Rmax normalized by molecular weight ratio PMB:PMBN: LPS surface
Experimental: OMV-coated and whole cell-coated C1 chips were prepared as already described with the following changes and LPS-coated surfaces were prepared identically but with rough-LPS extracted from E. coli F583 (Rd mutant, Sigma #L6893). For LPS, cloudy colloid suspension (above its CMC, ~1 mg/ml) contains LPS micelles that were injected and captured. For all formats, sample buffer and running buffer were composed of Dulbecco’s phosphate-buffered salt solution containing 0.0005% tween-80 (Sigma), 1 mM calcium and 0.5 mM magnesium (Fisher Scientific), pH 7.4. Analysis and compartment temperatures were both set to 37 °C. Freshly prepared OMV-coated or whole cell-coated sensing surfaces were employed for each injection of polymyxin B while LPS-coated sensing surfaces could be fully regenerated by injecting 50 mM CHAPS. Reversibly bound PMBN could be reinjected over all surfaces without requiring regeneration as it fully dissociated within a few minutes.
Serial doubling dilutions of PMBN were injected from […] over whole cells and OMVs at […] for 1 min (Fig. 3A, B). This was repeated over LPS-coated sensing surfaces and, in this case, serial doubling dilutions of PMBN were injected from 5 mM to 0.625 mM for 30 s at […], immediately prior to injection of […] polymyxin B for 200 s at […] (Fig. 3D).
Fresh sensing surfaces coated with whole cells and OMVs were prepared and 325 nM polymyxin B was injected at […] for 120 s over both. This injection was repeated after a long delay, and without regeneration, in order to allow free sites to become available thereby resulting in two polymyxin B binding curves for each sensing surface (Fig. 3E, F). A fresh LPS-coated surface was prepared and polymyxin B was injected using SCK injection mode over a serial doubling dilution range from 625 nM to 39 nM.
Section 1 - Mechanistic studies of polymyxins
The interaction models introduced here (Eqn (S1-S3)) are annotated in terms of binding of polymyxin B (PMB) to LPS but also apply to any other affinity binding pair. Molar concentrations of bound PMB are converted to SPR response as R = G.MW.[PMB], where MW is the molecular weight of PMB, and G is a mass-to-response conversion factor. A full quantitative interpretation of SPR sensitivity has been reported1. In a general case, a protein concentration of 0.01 (g/L) produces a response of 1 response unit (RU) yielding the proportionality constant G=100 (L/g).
Here, we assume protein is distributed uniformly within a […] thick hydrogel, dissolved in buffer at near physiological salt concentrations in the absence of high concentrations of high refractive index substances, such as glycerol and DMSO. This calibration may be adjusted for variability in the refractive index increment when working with buffers or other classes of molecules such as nucleic acids, polysaccharides, or drug-like molecules. In addition, binding interactions confined to planar sensing surfaces (i.e., no hydrogel matrix) results in a 1.3-fold increased response due to minimal decay in SPR sensitivity when close to the sensing surface (e.g., < 10 nm). Change in protein accumulation over time produces responses that are indicated here by a time subscript (e.g., R(t)). A simple 1:1 model for binding of PMB to LPS to form an affinity complex PMBL is given by the pseudo-first-order model defined by Eqn (S1). dR/dt = (kon.[PMB]i.(Rmax-R(t)) -koff.R(t)) Eqn (S1)
Where R is the SPR response for accumulation of affinity complex PMBL. [PMB]i is the injected concentration of PMB and Rmax is the saturation response assuming full target occupancy. This model assumes that mass transport of PMB within the flow cell, which governs the rate of exchange of PMB between the bulk liquid and the sensing surface, is non-limiting. However, this […]
in the 1:1 two-compartment model in Eqn (S2). dR/dt = (kon.[PMB].(Rmax-R(t)) -koff.R(t)) + kt.([PMB]i(t) – [PMB]) Eqn (S2) […]

[1] = LPS pre-saturated with polymyxin B

Structure (SMILES)	change in affinity and binding capacity after pre-saturation [1]	fold loss in affinity [1] [fold]	fold loss in binding capacity [1] [fold]	Rmax normalized by molecular weight ratio PMB:PMBN [RU]	consumption of available LPS (immediately after polymyxin B saturation)	Kd (two LPS densities, pre-saturated with polymyxin B, SCK from 625 nM, Eq. S3, (± SE)) [nM]
CC(C)C[C@@H]1NC(=O)[C@@H](Cc2ccccc2)NC(=O)[C@H](CCN)NC(=O)[C@@H](NC(=O)[C@H](CCN)NC(=O)[C@@H](N)[C@@H](C)O)CCNC(=O)[C@H]([C@@H](C)O)NC(=O)[C@H](CCN)NC(=O)[C@H](CCN)NC1=O [PMBN] (H-T[Dab][Dab][Dab][dF]L[Dab][Dab]T; lactam 3-C)	two-fold drop in both affinity and binding capacity	2	2	415	–	–
CC[C@H](C)CCCCC(=O)N[C@@H](CCN)C(=O)N[C@H](C(=O)N[C@@H](CCN)C(=O)N[C@H]1CCNC(=O)[C@H]([C@@H](C)O)NC(=O)[C@H](CCN)NC(=O)[C@H](CCN)NC(=O)[C@H](CC(C)C)NC(=O)[C@@H](Cc2ccccc2)NC(=O)[C@H](CCN)NC1=O)[C@@H](C)O [Polymyxin B] (X1-[Dab]T[Dab][Dab][Dab][dF]L[Dab][Dab]T; lactam 4-C (inferred); N-terminus assumed)	–	–	–	407	~ 40%	127
